Measurements published in the NIST ThermoML archive (doi:10.1016/j.fluid.2014.04.002).

Assay: refractive index (Na D-line) (dimensionless); xn = mol fraction of the nth substance listed
Conditions: 101 kPa, Liquid, Standard Abbe refractometry

COCCOCCOCCOCCOC [2,5,8,11,14-pentaoxapentadecane] + CCOC(=O)C(C)O
refractive index
Conditions	x2 = 0	x2 = 0.0999	x2 = 0.1999	x2 = 0.2999	x2 = 0.3998	x2 = 0.4999	x2 = 0.6001	x2 = 0.6998	x2 = 0.8001	x2 = 0.9
288.15 K	1.43553	1.43413	1.43253	1.43141	1.42997	1.42831	1.42648	1.42438	1.42214	1.41886
293.15 K	1.43338	1.43195	1.4304	1.42925	1.42782	1.42614	1.42431	1.42219	1.4199	1.41662
298.15 K	1.43123	1.42983	1.42826	1.42712	1.42566	1.42398	1.42212	1.41995	1.41764	1.41436
303.15 K	1.42906	1.42761	1.42612	1.42496	1.42351	1.4218	1.41993	1.41778	1.41537	1.41208
308.15 K	1.42697	1.42558	1.42399	1.4228	1.42135	1.41964	1.41774	1.41556	1.41312	1.4098
313.15 K	1.42447	1.42319	1.42182	1.42059	1.41916	1.41744	1.41552	1.41332	1.41084	1.40749
318.15 K	1.42206	1.42095	1.41972	1.41848	1.41703	1.41528	1.41335	1.41108	1.40853	1.40517
323.15 K	1.41985	1.4188	1.41762	1.41635	1.41488	1.41315	1.41119	1.40889	1.40622	1.40288

CCOC(=O)C(C)O (stereo not drawn) [DL-ethyl lactate] + OCCCO
refractive index
Conditions	x1 = 0.1001	x1 = 0.2001	x1 = 0.3	x1 = 0.3998	x1 = 0.4996	x1 = 0.5997	x1 = 0.7	x1 = 0.8	x1 = 0.8997	x1 = 1
288.15 K	1.43819	1.43549	1.43282	1.43021	1.42764	1.4251	1.42262	1.42017	1.41776	1.41537
293.15 K	1.43668	1.43388	1.43111	1.4284	1.42573	1.42312	1.42055	1.41803	1.41554	1.41307
298.15 K	1.43517	1.43227	1.4294	1.42658	1.42383	1.42114	1.41851	1.41592	1.41336	1.41076
303.15 K	1.43362	1.43062	1.42766	1.42476	1.42192	1.41914	1.4164	1.41371	1.41107	1.40843
308.15 K	1.43214	1.42902	1.42592	1.42292	1.41996	1.41713	1.41427	1.41152	1.40882	1.4061
313.15 K	1.43065	1.42743	1.42421	1.42111	1.41805	1.41506	1.41215	1.40932	1.40654	1.40374
318.15 K	1.42914	1.4258	1.42249	1.41923	1.41608	1.41301	1.41004	1.40715	1.40428	1.40136
323.15 K	1.42761	1.42417	1.42075	1.41741	1.41415	1.41097	1.40792	1.40493	1.40198	1.39898

CCOC(=O)C(C)O (stereo not drawn) [DL-ethyl lactate] + C1CCOC1
refractive index
Conditions	x1 = 0.1002	x1 = 0.2001	x1 = 0.3001	x1 = 0.4001	x1 = 0.4999	x1 = 0.5999	x1 = 0.6999	x1 = 0.7999	x1 = 0.8997	x1 = 1
288.15 K	1.41059	1.41119	1.4118	1.41241	1.41298	1.41349	1.41393	1.41431	1.41475	1.41537
293.15 K	1.40801	1.40867	1.40932	1.40998	1.41058	1.41112	1.41157	1.41197	1.41242	1.41307
298.15 K	1.40539	1.40614	1.40687	1.40756	1.40816	1.40871	1.40922	1.40965	1.41017	1.41076
303.15 K	1.40277	1.40359	1.40438	1.4051	1.40571	1.40628	1.40684	1.4073	1.40787	1.40843
308.15 K	1.40015	1.40102	1.40187	1.40264	1.40326	1.40392	1.40445	1.40493	1.40546	1.4061
313.15 K	1.3975	1.39842	1.39936	1.40014	1.4008	1.40149	1.40205	1.40255	1.4031	1.40374
318.15 K	1.39481	1.39578	1.39672	1.39755	1.39831	1.39899	1.3996	1.40015	1.4007	1.40136
323.15 K	1.39211	1.39315	1.39416	1.39503	1.39583	1.39655	1.3972	1.39778	1.39834	1.39898

CCOC(=O)C(C)O (stereo not drawn) [DL-ethyl lactate] + CC(O)CO
refractive index
Conditions	x1 = 0.1	x1 = 0.2	x1 = 0.3	x1 = 0.3999	x1 = 0.4998	x1 = 0.599	x1 = 0.6999	x1 = 0.7994	x1 = 0.8997	x1 = 1
288.15 K	1.43169	1.42919	1.42688	1.42476	1.42287	1.42116	1.41959	1.41814	1.41676	1.41537
293.15 K	1.42994	1.42736	1.42499	1.4228	1.42086	1.4191	1.41747	1.41597	1.41452	1.41307
298.15 K	1.42819	1.42554	1.42309	1.42085	1.41883	1.41701	1.41532	1.41377	1.41227	1.41076
303.15 K	1.42642	1.42369	1.42118	1.41886	1.41679	1.41491	1.41316	1.41155	1.40999	1.40843
308.15 K	1.42461	1.42181	1.41924	1.41688	1.41475	1.41282	1.41102	1.40935	1.40773	1.4061
313.15 K	1.42279	1.41992	1.41729	1.41488	1.4127	1.41071	1.40884	1.40711	1.40542	1.40374
318.15 K	1.42098	1.41801	1.41529	1.41282	1.41055	1.4085	1.40659	1.40481	1.40309	1.40136
323.15 K	1.41918	1.41615	1.41337	1.41082	1.40849	1.40637	1.40437	1.40252	1.40073	1.39898
